Measurements as given in US4831170A, “Pharmaceutically active phospino-hydrocarbon-group VIII-metal complexes, antitumor compositions containing these complexes, and a process for preparing said compounds or antitumor compositions” (priority 1985, dated 1989).

Legend:
[1] = test system: L1210 murine leukemia resistant to cisplatin (L1210:DDP); experiment: Antitumor activity against cisplatin-resistant L1210 murine leukemia (L1210/DDP) in CDF1 mice; assay type: in vivo; settings: cisplatin-resistant subline, day 1; for L1210/DDP Dose producing the maximum % T/C: administered ip; for L1210/DDP Max. % T/C: done concomitantly with L1210 test, ip, active if ≥125
Description: (§1) All of the metal complexes were tested for antitumor activity against P388 murine leukemia. Selected compounds were also tested for antitumor activity against L1210 murine leukemia and a subline of L1210 murine leukemia resistant to cisplatin (L1210:DDP). CDF1 mice weighing 20 grams were inoculated intraperitoneally with 10^6 ascites cells of P388 leukemia, L1210 leukemia or L1210:DDP leukemia, depending on the test system being used. Drug administration was initiated the day following tumor implantation in all test systems. The complexes were administered at various dose levels by intraperitoneal injection. Groups of four to six mice were used for each dose level and they were treated with the complex on day one only. A group of ten saline treated control mice was included in each experiment. Cisplatin treated groups were included as a positive control in each experiment. The mice were weighed before treatment and again on day five or six and the average weight change used as a measure of toxicity. The animals were observed daily for mortality and the experiments terminated after 30 days. Antitumor activity was determined based on % T/C, which is the ratio of the median survival time of the drug treated group to the median survival time of the saline treated control group times 100. The saline treated mice usually have a median survival time of 9 days with P388 leukemia and 7 days with L1210 and L1210/DDP leukemia. A complex is considered active if it produces a % T/C of ≥125.
(§2) Tables II and IIa contain summaries of the evaluations of the compounds for antitumor activity against the murine leukemias. Listed for each compound is the maximum % T/C achieved and the dose producing that effect.
(§3) For the in vitro cytotoxicity studies the drugs were dissolved or suspended, depending on their solubility, in 0.9% NaCl solution. Occasionally, 5% dextrose in water or 10% DMSO in 0.9% NaCl was used. The compounds were prepared for in vivo treatment by dissolving or suspending, with the addition of minimal amounts of Tween 80, in water.

L1210 murine leukemia = experiment: Antitumor activity against L1210 murine leukemia in CDF1 mice; assay type: in vivo; settings: day 1; for L1210 Dose producing the maximum % T/C: administered ip; for L1210 Max. % T/C: median survival time treated/saline control x 100, ip, active if ≥125
Description: as §1, §2, §3

[2] = test system: B16-F10 murine melanoma cells; experiment: In vitro cytotoxicity, B16-F10 murine melanoma cells (72 h, crystal violet); assay type: cell-based
Description: (§4) Logarithmically growing cells were harvested by mild trypsinization and 4000 cells were added to each well of a 96-well microtiter plate (Costar). […] The cells were then treated with a metal complex or cisplatin and incubated for 72 hours. The plates were inverted and shaken to remove media, drug and detached cells. […] The fixative was removed, the plates air dried, stained with 0.0075% crystal violet for 15 minutes, washed twice and air dried. The stain was solubilized with 0.2 ml of 0.1 M AcOH/EtOH (1:1) and optical densities determined using a Dynatech MR600 microtiter plate reader. […] The compounds were prepared for in vivo treatment by dissolving or suspending, with the addition of minimal amounts of Tween 80, in water.

P388 murine leukemia = experiment: Antitumor activity against P388 murine leukemia in CDF1 mice; assay type: in vivo; settings: 1 x on day 1; for P 388 Dose producing the maximum % T/C: administered ip; for P 388 Maximum % T/C: median survival time treated/saline control x 100, ip, active if ≥125
Description: as §1, §2, §3

[3] = test system: HCT-116 human colon carcinoma cells; experiment: In vitro cytotoxicity, HCT-116 human colon carcinoma cells (72 h, crystal violet); assay type: cell-based; settings: HCT-116 cells
Description: as §4

B16 Melanoma = experiment: Antitumor activity against B16 Melanoma in BDF1 mice; assay type: in vivo; settings: for B 16 Dose producing the maximum % T/C: administered ip, days 1-9; for B 16 Maximum % T/C: median survival time vs saline control, ip, daily days 1-9, active if ≥125, figures separated by slashes are from separate experiments
Description: Several of the metal complexes were additionally evaluated for antitumor activity against B16 Melanoma. BDF1 mice, 10 per group, were inoculated intraperitoneally with 0.5 ml of a 10 percent (w:v) brei of B16 Melanoma. Intraperitoneal treatment with the metal complexes was initiated one day after implant and continued daily for a total of nine days. From 4 to 5 doses were tested for each compound under study. A saline treated control group and cisplatin treated groups were included in each experiment. The mice were observed daily for survivors and the experiments terminated after 60 days. […] The median survival time of the drug treated mice relative to that of the controls (% T/C) was used as a measure of antitumor activity.
Occasionally, 5% dextrose in water or 10% DMSO in 0.9% NaCl was used. The compounds were prepared for in vivo treatment by dissolving or suspending, with the addition of minimal amounts of Tween 80, in water.

[4] = Struck et al., J. Med. Chem., 9, 414 (1966); cited from earlier work

Structure (SMILES) | L1210/DDP Dose producing the maximum % T/C [1] | L1210/DDP Max. % T/C [1] | L1210 Dose producing the maximum % T/C (L1210 murine leukemia) | L1210 Max. % T/C (L1210 murine leukemia) | IC 50 (concentration which inhibits cell growth by 50%), B 16 [2] | P 388 Dose producing the maximum % T/C (P388 murine leukemia) | P 388 Maximum % T/C (P388 murine leukemia) | IC 50 (concentration which inhibits cell growth by 50%), HCT 116 [3] | B 16 Dose producing the maximum % T/C (B16 Melanoma) | B 16 Maximum % T/C (B16 Melanoma) | cytotoxic activity [4]
O=[N+]([O-])[O-].O=[N+]([O-])[O-].[Ni+2].c1ccc(P(CCP(c2ccccc2)c2ccccc2)c2ccccc2)cc1.c1ccc(P(CCP(c2ccccc2)c2ccccc2)c2ccccc2)cc1 [TNO 354, Bis[1,2-bis(diphenylphosphino)ethane]nickel(II) dinitrate] | 80 mg/kg | 138 % T/C | 80 mg/kg | 100 % T/C | 4.1 µg/mL | 50 mg/kg | 139 % T/C | 1.3 µg/mL | 30 mg/kg/inj. | 183 % T/C | –
c1ccc(P(CCP(c2ccccc2)c2ccccc2)c2ccccc2)cc1 [1,2-bis-(diphenylphosphino)ethane, 1,2-bis(diphenylphosphino)ethane] | – | – | – | – | – | – | – | – | – | – | cytotoxic activity
O=[N+]([O-])[O-].O=[N+]([O-])[O-].[Co+2].c1ccc(P(CCP(c2ccccc2)c2ccccc2)c2ccccc2)cc1.c1ccc(P(CCP(c2ccccc2)c2ccccc2)c2ccccc2)cc1 [TNO 347, Bis[1,2-bis(diphenylphosphino)ethane]nitrato cobalt(II) nitrate] | 50 mg/kg | 150 % T/C | 100 mg/kg | 100 % T/C | 413 µg/mL | 100 mg/kg | 161 % T/C | > 500 µg/mL | 20 mg/kg/inj. | 171 % T/C | –
